Results: ChEMBL document CHEMBL1275492, “In vitro activity of ceftobiprole against pathogens from two phase 3 clinical trials of complicated skin and skin structure infections” (2008)
Converted amounts (≈) assume the structure as drawn.

What was measured:
Assay type in all cases: functional
Gemella morbillorum = experiment: Antibacterial activity against Gemella morbillorum obtained from complicated skin and skin structure infections […]
Mammaliicoccus sciuri = experiment: Antibacterial activity against coagulase-negative Staphylococcus sciuri obtained from complicated skin and skin structure infections by agar dilution method
[1] = Antibacterial activity against Streptococcus sp. 'group C' obtained from complicated skin and skin structure infections by agar dilution method
Streptococcus pyogenes = experiment: Antibacterial activity against Streptococcus pyogenes obtained from complicated skin and skin structure infections by agar dilution method
Staphylococcus capitis = experiment: Antibacterial activity against coagulase-negative Staphylococcus capitis obtained from complicated skin and skin structure infections by agar dilution method
Gemella = experiment: Antibacterial activity against Gemella spp. obtained from complicated skin and skin structure infections by agar dilution method
Staphylococcus aureus [2] = experiment: Antibacterial activity against methicillin susceptible Staphylococcus aureus obtained from complicated skin and skin structure infections by agar dilution method
Micrococcus = experiment: Antibacterial activity against Micrococcus spp. obtained from complicated skin and skin structure infections by agar dilution method
Staphylococcus cohnii = experiment: Antibacterial activity against coagulase-negative Staphylococcus cohnii obtained from complicated skin and skin structure infections by agar dilution method
Staphylococcus aureus [3] = experiment: Antibacterial activity against methicillin resistant Staphylococcus aureus obtained from complicated skin and skin structure infections by agar dilution method
Streptococcus agalactiae = experiment: Antibacterial activity against Streptococcus agalactiae obtained from complicated skin and skin structure infections by agar dilution method
[4] = tested on: Staphylococcus saprophyticus; experiment: Antibacterial activity against coagulase-negative Staphylococcus saprophyticus obtained from complicated skin and skin structure infections by agar dilution method
Bacillus = experiment: Antibacterial activity against Bacillus spp. obtained from complicated skin and skin structure infections by agar dilution method
[5] = tested on: Staphylococcus lugdunensis; experiment: Antibacterial activity against coagulase-negative Staphylococcus lugdunensis obtained from complicated skin and skin structure infections by agar dilution method
Staphylococcus warneri = experiment: Antibacterial activity against coagulase-negative Staphylococcus warneri obtained from complicated skin and skin structure infections by agar dilution method
[6] = tested on: Staphylococcus haemolyticus; experiment: Antibacterial activity against coagulase-negative Staphylococcus haemolyticus obtained from complicated skin and skin structure infections by agar dilution method
Enterococcus faecium = experiment: Antibacterial activity against Enterococcus faecium obtained from complicated skin and skin structure infections by agar dilution method
Staphylococcus hominis = experiment: Antibacterial activity against coagulase-negative Staphylococcus hominis obtained from complicated skin and skin structure infections by agar dilution method
[7] = tested on: Staphylococcus epidermidis; experiment: Antibacterial activity against coagulase-negative Staphylococcus epidermidis obtained from complicated skin and skin structure infections by agar dilution method
Staphylococcus = experiment: Antibacterial activity against methicillin-susceptible, coagulase-negative Staphylococcus obtained from complicated skin and skin structure infections by agar dilution method
[8] = tested on: Staphylococcus lugdunensis; experiment: Antibacterial activity against methicillin-resistant, oxacillin-susceptible, coagulase-negative, mecA-positive Staphylococcus lugdunensis obtained from complicated skin and skin structure infections by agar dilution method
[9] = tested on: Streptococcus constellatus; experiment: Antibacterial activity against Streptococcus constellatus obtained from complicated skin and skin structure infections by agar dilution method
[10] = tested on: Staphylococcus intermedius; experiment: Antibacterial activity against Staphylococcus intermedius obtained from complicated skin and skin structure infections by agar dilution method
Enterococcus faecalis = experiment: Antibacterial activity against Enterococcus faecalis obtained from complicated skin and skin structure infections by agar dilution method
Lactococcus lactis = experiment: Antibacterial activity against Lactococcus lactis obtained from complicated skin and skin structure infections by agar dilution method
Aerococcus viridans = experiment: Antibacterial activity against Aerococcus viridans obtained from complicated skin and skin structure infections by agar dilution method
Streptococcus mitis = experiment: Antibacterial activity against Streptococcus mitis obtained from complicated skin and skin structure infections by agar dilution method
[11] = Antibacterial activity against Streptococcus sp. 'group G' obtained from complicated skin and skin structure infections by agar dilution method

CCC[C@@H]1C[C@@H](C(=O)N[C@@H]([C@H]2O[C@H](SC)[C@H](O)[C@@H](O)[C@H]2O)[C@H](C)Cl)N(C)C1 [CLINDAMYCIN]
MIC50 (Gemella morbillorum): 1 µg/mL (≈ 2.35 µM) | MIC90 (Gemella morbillorum): 4 µg/mL (≈ 9.41 µM) | MIC50 (Mammaliicoccus sciuri): 0.06 µg/mL (≈ 0.141 µM) | MIC90 (Mammaliicoccus sciuri): 1 µg/mL (≈ 2.35 µM) | MIC50 [1]: ≤ 0.06 µg/mL | MIC90 [1]: 0.25 µg/mL (≈ 0.588 µM) | MIC50 (Streptococcus pyogenes): 0.06 µg/mL (≈ 0.141 µM) | MIC90 (Streptococcus pyogenes): 0.06 µg/mL (≈ 0.141 µM) | MIC50 (Staphylococcus capitis): 0.06 µg/mL (≈ 0.141 µM) | MIC90 (Staphylococcus capitis): 1 µg/mL (≈ 2.35 µM) | MIC50 (Gemella): 1 µg/mL (≈ 2.35 µM) | MIC90 (Gemella): 4 µg/mL (≈ 9.41 µM) | MIC50 (Staphylococcus aureus [2]): 0.12 µg/mL (≈ 0.282 µM) | MIC90 (Staphylococcus aureus [2]): 0.12 µg/mL (≈ 0.282 µM) | MIC50 (Micrococcus): 1 µg/mL (≈ 2.35 µM) | MIC90 (Micrococcus): 4 µg/mL (≈ 9.41 µM) | MIC50 (Staphylococcus cohnii): 0.06 µg/mL (≈ 0.141 µM) | MIC90 (Staphylococcus cohnii): 1 µg/mL (≈ 2.35 µM) | MIC50 (Staphylococcus aureus [3]): 0.12 µg/mL (≈ 0.282 µM) | MIC90 (Staphylococcus aureus [3]): > 16 µg/mL | MIC50 (Streptococcus agalactiae): 0.06 µg/mL (≈ 0.141 µM) | MIC90 (Streptococcus agalactiae): > 16 µg/mL | MIC50 [4]: 0.06 µg/mL (≈ 0.141 µM) | MIC90 [4]: 1 µg/mL (≈ 2.35 µM) | MIC50 (Bacillus): 1 µg/mL (≈ 2.35 µM) | MIC90 (Bacillus): 4 µg/mL (≈ 9.41 µM) | MIC50 [5]: 0.06 µg/mL (≈ 0.141 µM) | MIC90 [5]: 1 µg/mL (≈ 2.35 µM) | MIC50 (Staphylococcus warneri): 0.06 µg/mL (≈ 0.141 µM) | MIC90 (Staphylococcus warneri): 1 µg/mL (≈ 2.35 µM) | MIC50 [6]: 0.06 µg/mL (≈ 0.141 µM) | MIC90 [6]: 1 µg/mL (≈ 2.35 µM) | MIC (Enterococcus faecium): ≤ 0.06 µg/mL | MIC50 (Enterococcus faecium): 0.06 µg/mL (≈ 0.141 µM) | MIC50 (Staphylococcus hominis): 0.06 µg/mL (≈ 0.141 µM) | MIC90 (Staphylococcus hominis): 1 µg/mL (≈ 2.35 µM) | MIC50 [7]: 0.06 µg/mL (≈ 0.141 µM) | MIC90 [7]: 1 µg/mL (≈ 2.35 µM) | MIC50 (Staphylococcus): ≤ 0.06 µg/mL | MIC90 (Staphylococcus): 0.12 µg/mL (≈ 0.282 µM) | MIC50 [8]: 0.06 µg/mL (≈ 0.141 µM) | MIC90 [8]: > 8 µg/mL | MIC [9]: ≤ 0.06 µg/mL | MIC50 [9]: ≤ 0.06 µg/mL | MIC90 [9]: 0.06 µg/mL (≈ 0.141 µM) | MIC50 [10]: 2 µg/mL (≈ 4.71 µM) | MIC90 [10]: 4 µg/mL (≈ 9.41 µM) | MIC50 (Enterococcus faecalis): 16 µg/mL (≈ 37.6 µM) | MIC90 (Enterococcus faecalis): > 8 µg/mL | MIC50 (Lactococcus lactis): 1 µg/mL (≈ 2.35 µM) | MIC90 (Lactococcus lactis): 4 µg/mL (≈ 9.41 µM) | MIC50 (Aerococcus viridans): 1 µg/mL (≈ 2.35 µM) | MIC90 (Aerococcus viridans): 4 µg/mL (≈ 9.41 µM) | MIC50 (Streptococcus mitis): 2 µg/mL (≈ 4.71 µM) | MIC90 (Streptococcus mitis): 4 µg/mL (≈ 9.41 µM) | MIC50 [11]: 0.06 µg/mL (≈ 0.141 µM) | MIC90 [11]: 0.06 µg/mL (≈ 0.141 µM)
